In article PMC4519324, “Substrate Specificity, Inhibitor Selectivity and Structure-Function Relationships of Aldo-Keto Reductase 1B15: A Novel Human Retinaldehyde Reductase” (PLoS ONE, 2015):
Like-named read-outs stand apart in the source and are kept apart here.

Key:
AKR1B1 = target: T1, AKR1B1 (Homo sapiens, UniProt P15121); details: read-out: Km (μM) for cofactor NADPH; cited from earlier work
T1 construct: made in house

AKR1B15 [1] = target: T2, AKR1B15 (Homo sapiens, UniProt C9JRZ8); assay: Spectrophotometric activity assay (NADPH decrease at 340 nm), substrate kinetics; type: biochemical; details: 3 mM D,L-glyceraldehyde, read-out: Km (μM) for cofactor NADPH
T2 construct: made in house; host or cells: E. coli BL21(DE3), with or without chaperone plasmids pBB540/pBB542
T2 sequence (C9JRZ8 whole entry): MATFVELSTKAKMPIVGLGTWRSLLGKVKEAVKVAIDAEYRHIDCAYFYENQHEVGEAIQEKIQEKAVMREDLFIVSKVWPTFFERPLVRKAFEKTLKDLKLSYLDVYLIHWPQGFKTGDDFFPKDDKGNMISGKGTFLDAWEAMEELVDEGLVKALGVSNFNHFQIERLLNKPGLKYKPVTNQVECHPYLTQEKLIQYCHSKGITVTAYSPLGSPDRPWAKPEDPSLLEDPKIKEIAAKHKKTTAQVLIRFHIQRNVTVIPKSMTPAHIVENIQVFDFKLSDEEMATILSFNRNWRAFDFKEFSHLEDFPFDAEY

AKR1B15 [2] = target: T2, AKR1B15; assay: NADPH binding by quenching of Trp intrinsic fluorescence; details: 0.5 μM protein, 20 mM sodium phosphate, pH 7.0, 25°C, read-out: K D value for NADPH
Description: (§1) NADPH binding was analyzed by quenching of Trp intrinsic fluorescence of 0.5 μM protein, using a Cary Eclipse (Varian) fluorimeter, in 20 mM sodium phosphate, pH 7.0, at 25°C in a final volume of 1 mL. The excitation wavelength was 290 nm and the emission wavelength was monitored at 340 nm. AKR1B10 was used as a control. The dissociation constant (K D) values were calculated by nonlinear fitting of experimental data, using Grafit 5.0 (Eritacus Software), to the Morrison equation: ΔF=ΔFmax·[E]+[NADPH]+KD−([E]+[NADPH]+KD)^2−4·[E]·[NADPH]/2·[E]

AKR1B10 [3] = target: T3, AKR1B10 (Homo sapiens, UniProt O60218); assay: as above; details: 0.5 μM protein, 20 mM sodium phosphate, pH 7.0, 25°C, read-out: K D value for NADPH
T3 construct: made in house
T3 sequence (O60218 whole entry): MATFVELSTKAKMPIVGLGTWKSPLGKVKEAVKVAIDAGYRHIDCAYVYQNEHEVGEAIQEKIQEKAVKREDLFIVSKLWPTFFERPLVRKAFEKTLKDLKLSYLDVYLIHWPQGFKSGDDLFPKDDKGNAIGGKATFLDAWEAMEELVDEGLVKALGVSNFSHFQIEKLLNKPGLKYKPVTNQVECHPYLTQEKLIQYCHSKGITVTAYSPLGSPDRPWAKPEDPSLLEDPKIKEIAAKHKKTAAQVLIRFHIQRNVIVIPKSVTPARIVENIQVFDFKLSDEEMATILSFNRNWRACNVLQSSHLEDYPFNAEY
Description: as §1

AKR1B10 [4] = target: T3, AKR1B10; assay: Spectrophotometric activity assay (NADPH decrease at 340 nm), substrate kinetics; type: biochemical; details: 60 mM D,L-glyceraldehyde, read-out: Km (μM) for cofactor NADPH
AKR1B15 [5] = target: T2, AKR1B15; assay: Inhibition screening with D,L-glyceraldehyde as substrate; type: biochemical; details: 6 mM D,L-glyceraldehyde as substrate, 0.1% DMSO
Description: (§2) Activities were determined in 100 mM sodium phosphate, pH 7.0, at 25°C, using 0.2 mM NADPH in 0.2-cm path length cuvettes, with freshly prepared substrate solutions. One unit of activity is defined as the amount of enzyme required to transform 1 μmol of substrate per min at 25°C.
(§3) All compounds tested as inhibitors were dissolved in DMSO and assayed in a final concentration of 0.1% (v/v) DMSO using 6 mM D,L-glyceraldehyde as a substrate. Kinetic constant and IC50 (compound concentration that inhibits enzymatic activity by 50%) values were calculated by fitting the initial rates to the appropriate equation using Grafit 5.0 (Eritacus Software) and values were given as the mean ± standard error of three experiments. Standard error values were less than 20% of the mean values.

AKR1B10 [6] = target: T3, AKR1B10; details: AKR1B10, values in Table 3; cited from earlier work
AKR1B10 [7] = target: T3, AKR1B10; assay: Inhibition of enzymatic activity with D,L-glyceraldehyde as substrate; type: biochemical
Description: as §2, §3

Km (AKR1B15 [1]) [µM] | Kd (AKR1B15 [2]) [nM] | Kd (AKR1B10 [3]) [nM] | Km (AKR1B10 [4]) [µM] | IC50 (AKR1B15 [5]) [nM] | IC50 (AKR1B10 [7]) [nM] | Structure (SMILES) | Km (AKR1B1) [µM] | IC50 (AKR1B10 [6]) [nM]
5.7 | 113 ± 9 | 92 ± 35 | 10 | – | – | NC(=O)C1=CN([C@@H]2O[C@H](COP(=O)(O)OP(=O)(O)OC[C@H]3O[C@@H](n4cnc5c(N)ncnc54)[C@H](OP(=O)(O)O)[C@@H]3O)[C@@H](O)[C@H]2O)C=CC1 [NADPH] | 2.9 | –
– | – | – | – | > 100000 | 6 | COc1ccc2c(C(=S)N(C)CC(=O)O)cccc2c1C(F)(F)F [Tolrestat] | – | < 10000
